Data set [1] deals with TMZ-resistant glioma cell lines. Put plainly: cytotoxicity of noscapine in TMZ-resistant glioma cell lines. In kind it is cell-based.
For data set [2], the system named is TMZ-resistant tumor cells. Put plainly: migration and invasion of TMZ-resistant tumor cells. Type of data set: cell-based.
For data set [3], the system named is TMZ-resistant U251 glioma cells. Put plainly: intracranial rodent xenograft tumor model, survival. In kind it is in vivo, nude mice. The text has this: TMZ-resistant U251 glioma cells (R) were implanted intracranially into nude mice. After 7 days, treatment was initiated. […] Survival was used as an endpoint; * signifies statistical significance (p<0.05).
After 7 days, treatment was initiated.

The conditions of data set [4]: in vivo, cited from earlier work.

For the molecule `COc1ccc2c(c1OC)C(=O)O[C@@H]2[C@H]1c2c(cc3c(c2OC)OCO3)CCN1C` [noscapine, (3S)-6,7-Dimethoxy-3-[(5R)-5,6,7,8-tetrahydro-4-methoxy-6-methyl-1,3-dioxolo (4,5-g)isoquinolin-5-yl]-1(3H)-isobenzofuranone], in data set [1] (4 different TMZ-resistant glioma cell lines), the cell death result is “caused cell death”. For the same molecule, in data set [1] (TMZ-resistant glioma cell lines, prolonged arrest causes cell cytotoxicity), the cell cycle arrest result is on record as “caused an arrest in the G2/M phase of cell cycle”. In data set [2], the “invasion of TMZ-resistant tumor cells” value is “decreased” and the “migration of TMZ-resistant tumor cells” value was “decreased”. Also, in data set [3] (animal models), the tumor growth entry was “reduced tumor growth”. Moreover, the “survival of TMZ-resistant tumor bearing animals” value in data set [3] (noscapine 225 mg/kg twice daily by gavage, treatment from day 7 after implantation) was “significantly enhanced survival”. For the same molecule, the oral bioavailability result in data set [4] (po) is recorded as “orally bioavailable”. In addition, the “crossing of the blood-brain-barrier” value in data set [4] is recorded as “known to cross the blood-brain-barrier”.

The record behind these values is patent US20140288115A1, “COMPOSITIONS AND METHODS FOR TREATING BRAIN CANCER” (UNIVERSITY OF SOUTHERN CALIFORNIA, priority 2011, published 2014).
